Measurements: patent US10538535B2, “Antitumoral compounds” (priority 2017, dated 2020)
Like-named read-outs stand apart in the source and are kept apart here.

Tests used:
Test in all cases: cells
A549 cells = details: for CC50: read-out: LC50; for IC (TGI): read-out: TGI
Excerpt: (§1) The aim of this assay is to evaluate the in vitro cytostatic (ability to delay or arrest tumor cell growth) or cytotoxic (ability to kill tumor cells) activity of the samples being tested.
(§2) A colorimetric assay, using sulforhodamine B (SRB) reaction has been adapted to provide a quantitative measurement of cell growth and viability (following the technique described by Skehan et al. J. Natl. Cancer Inst. 1990, 82, 1107-1112). Another colorimetric assay based on 3-(4,5-Dimethylthiazol-2-yl)-2,5-diphenyltetrazolium bromide (MTT) reduction to a purple formazan has been also used to assess the antiproliferative activity (following the technique described by Mosmann et al. J. Immunol. Meth. 1983, 65, 55-63).
(§3) These forms of assays employ 96-well cell culture microplates following the standards of the American National Standards Institute and the Society for Laboratory Automation and Screening (ANSI SLAS 1-2004 (R2012) Oct. 12, 2011. All the cell lines used in this study were obtained from the American Type Culture Collection (ATCC) and derive from different types of human cancer.
(§4) A549, HT29, MDA-MB-231 and PSN1 cells were maintained in Dulbecco's Modified Eagle Medium (DMEM) while PC-3 and 22Rv1 cells were maintained in Roswell Park Memorial Institute Medium (RPMI). All cell lines were supplemented with 10% Fetal Bovine Serum (FBS), 2 mM L-glutamine, 100 U/mL penicillin, and 100 […] at 37° C., 5% CO2 and 98% humidity. For the experiments, cells were harvested from subconfluent cultures using trypsinization and resuspended in fresh medium before counting and plating.
(§5) A549, HT29, MDA-MB-231 and PSN1 cells were seeded in 96 well microtiter plates, at 5000 cells per well in aliquots of 150 μL, and allowed to attach to the plate surface for 18 hours (overnight) in drug free medium. After that, one control (untreated) plate of each cell line was fixed (as described below) and used for time zero reference value. Culture plates were then treated with test compounds (50 μL aliquots of 4× stock solutions in complete culture medium plus 4% DMSO) using ten 2/5 serial dilutions (concentrations ranging from 10 to 0.003 μg/mL) and triplicate cultures (1% final concentration in DMSO). After 72 hours treatment, the antitumor effect was measured by using the SRB methodology: Briefly, cells were washed twice with PBS, fixed for 15 min in 1% glutaraldehyde solution at room temperature, rinsed twice in PBS, and stained in 0.4% SRB solution for 30 min at room temperature. Cells were then rinsed several times with 1% acetic acid solution and air-dried at room temperature.
(§6) Effects on cell growth and survival were estimated by applying the NCI algorithm (Boyd M R and Paull K D. Drug Dev. Res. 1995, 34, 91-104). The values obtained in triplicate cultures were fitted by nonlinear regression to a four-parameters logistic curve by nonlinear regression analysis.

HT29 cells = details: for CC50: read-out: LC50; for IC (TGI): read-out: TGI
Excerpt: as §1, §2, §3, §4, §5, §6

MDA-MB-231 cells = details: for GI50 / CC50 / IC (TGI): Homo sapiens, MDA-MB-231, 72 h; for CC50: read-out: LC50; for IC (TGI): read-out: TGI
Excerpt: as §1, §2, §3, §4, §5, §6

PSN1 cells = details: for CC50: read-out: LC50; for IC (TGI): read-out: TGI
Excerpt: as §1, §2, §3, §4, §5, §6

SMILES | CC50 (A549 cells; Homo sapiens, A549, 72 h) [µM] | CC50 (HT29 cells; Homo sapiens, HT-29, 72 h) [µM] | IC (TGI) (A549 cells; Homo sapiens, A549, 72 h) [µM] | IC (TGI) (HT29 cells; Homo sapiens, HT-29, 72 h) [µM] | CC50 (MDA-MB-231 cells) [µM] | IC (TGI) (MDA-MB-231 cells) [µM] | IC (TGI) (PSN1 cells; Homo sapiens, PSN1, 72 h) [µM] | other results
C=CCOC(=O)NC[C@H]1Cc2c([nH]c3ccccc23)[C@@]2(CS[C@@H]3c4c(OC(C)=O)c(C)c5c(c4[C@H](COC2=O)N2[C@@H]3[C@H]3c4c(cc(C)c(OC)c4O)C[C@@H]([C@@H]2O)N3C)OCO5)N1 [Compound 13-R] | > 0.115 | > 0.115 | – | – | – | – | – | –
C=CCOC(=O)NC[C@@H]1Cc2c([nH]c3ccccc23)[C@@]2(CS[C@@H]3c4c(OC(C)=O)c(C)c5c(c4[C@H](COC2=O)N2[C@@H]3[C@H]3c4c(cc(C)c(OC)c4O)C[C@@H]([C@@H]2O)N3C)OCO5)N1 [Compound 13-S] | – | > 1.15 | – | – | – | – | – | –
COc1c(C)cc2c(c1O)[C@@H]1[C@@H]3[C@@H]4SC[C@]5(N[C@H](C(=O)O)Cc6c5[nH]c5ccccc65)C(=O)OC[C@@H](c5c6c(c(C)c(OC(C)=O)c54)OCO6)N3[C@@H](C#N)[C@H](C2)N1C [Compound 14-S] | > 0.124 | > 0.124 | > 0.124 | > 0.124 | > 0.124 | 0.113 | > 0.124 | GI50 (A549 cells; Homo sapiens, A549, 72 h): > 0.124 µM; GI50 (HT29 cells; Homo sapiens, HT-29, 72 h): 0.121 µM; GI50 (MDA-MB-231 cells): 0.0545 µM; GI50 (PSN1 cells; Homo sapiens, PSN1, 72 h): > 0.124 µM; CC50 (PSN1 cells; Homo sapiens, PSN1, 72 h): > 0.124 µM
COc1c(C)cc2c(c1O)[C@@H]1[C@@H]3[C@@H]4SC[C@]5(N[C@H](C(=O)O)Cc6c5[nH]c5ccccc65)C(=O)OC[C@@H](c5c6c(c(C)c(OC(C)=O)c54)OCO6)N3[C@@H](O)[C@H](C2)N1C [Compound 15-S] | > 1.25 | 0.914 | > 1.25 | 0.513 | 0.275 | 0.213 | 0.463 | GI50 (A549 cells; Homo sapiens, A549, 72 h): > 1.25 µM; GI50 (HT29 cells; Homo sapiens, HT-29, 72 h): 0.3 µM; GI50 (MDA-MB-231 cells): 0.163 µM; GI50 (PSN1 cells; Homo sapiens, PSN1, 72 h): 0.238 µM; CC50 (PSN1 cells; Homo sapiens, PSN1, 72 h): 0.839 µM
COc1ccc2[nH]c3c(c2c1)C[C@H](CO)N[C@]31CS[C@@H]2c3c(OC(C)=O)c(C)c4c(c3[C@H](COC1=O)N1[C@@H]2[C@H]2c3c(cc(C)c(OC)c3O)C[C@@H]([C@@H]1C#N)N2C)OCO4 [Compound 18-R] | – | – | 0.00134 | 0.00134 | 0.00146 | 0.00134 | 0.00106 | GI50 (PSN1 cells; Homo sapiens, PSN1, 72 h, PSN1, 72 hours treatment, SRB): 0.00057 µM; GI50 (PSN1 cells; PSN1, 72 hours treatment, SRB): 0.000571 µM
COc1c(C)cc2c(c1O)[C@@H]1[C@@H]3[C@@H]4SC[C@]5(N[C@@H](CO)Cc6c5oc5ccccc65)C(=O)OC[C@@H](c5c6c(c(C)c(OC(C)=O)c54)OCO6)N3[C@@H](O)[C@H](C2)N1C [Compound 39-R] | > 0.127 | > 0.127 | – | – | – | – | – | –
C=CCOC(=O)NC[C@H]1Cc2c(oc3ccccc23)[C@@]2(CS[C@@H]3c4c(OC(C)=O)c(C)c5c(c4[C@H](COC2=O)N2[C@@H]3[C@H]3c4c(cc(C)c(OC)c4O)C[C@@H]([C@@H]2C#N)N3C)OCO5)N1 [Compound 45-R] | – | > 0.114 | – | – | – | – | – | –
C=CCOC(=O)NC[C@@H]1Cc2c(oc3ccccc23)[C@@]2(CS[C@@H]3c4c(OC(C)=O)c(C)c5c(c4[C@H](COC2=O)N2[C@@H]3[C@H]3c4c(cc(C)c(OC)c4O)C[C@@H]([C@@H]2C#N)N3C)OCO5)N1 [Compound 45-S] | – | > 0.114 | – | – | – | – | – | –
COc1c(C)cc2c(c1O)[C@@H]1[C@@H]3[C@@H]4SC[C@]5(N[C@@H](CN)Cc6c5oc5ccccc65)C(=O)OC[C@@H](c5c6c(c(C)c(OC(C)=O)c54)OCO6)N3[C@@H](C#N)[C@H](C2)N1C [Compound 46-R] | – | – | – | – | – | – | – | TGI (A549 cells; A549, 72 hours treatment, SRB): 2.77E−09 Molar; CC50 (A549 cells; A549, 72 hours treatment, SRB): > 0.126 µM; TGI (HT29 cells; HT29, 72 hours treatment, SRB): 1.39E−09 Molar; CC50 (HT29 cells; HT29, 72 hours treatment, SRB): > 0.126 µM; TGI (MDA-MB-231 cells; MDA-MB-231, 72 hours treatment, SRB): 1.39E−09 Molar
COc1c(C)cc2c(c1O)[C@@H]1[C@@H]3[C@@H]4SC[C@]5(N[C@H](CN)Cc6c5oc5ccccc65)C(=O)OC[C@@H](c5c6c(c(C)c(OC(C)=O)c54)OCO6)N3[C@@H](C#N)[C@H](C2)N1C [Compound 46-S] | > 0.126 | > 0.126 | – | – | – | – | – | –
